Laboratory results reported in patent US11084823B2, “Substituted pyrrolo[2,1-f][1,2,4]triazines as kinase inhibitors” (Daewoong Pharmaceutical Co., Ltd., priority 2017, dated 2021).

Legend:
[1] = target: Recombinant purified human JAK3 (Homo sapiens (Human), UniProt P52333); experiment: JAK3 kinase inhibitory activity, ADP-Glo kinase assay kit (Promega V9441); format: biochemical; conditions: ATP 5 uM, 4 ng JAK3 per reaction, 1 hour at 30° C., chemiluminescence
Experimental: (§1) JAK3 and BTK kinase inhibitory activities were measured for the compounds prepared in the above Examples through in vitro analysis on the ADP Glow (Glo) platform.
(§2) Specifically, the inhibitory activities of JAK3 and BTK kinase were measured using a JAK3 kinase assay kit (Promega, V9441) and a BTK kinase assay kit (Promega, V9071) which were purchased from Promega. Recombinant purified human JAK3 and BTK were diluted with 1× kinase reaction buffer (JAK3: 40 mM Tris-Cl, pH 7.5, 20 mM MgCl2, 0.1 mg/mL BSA and 50 uM DTT/BTK: 40 mM Tris-Cl, pH 7.5, 20 mM MgCl2, 0.1 mg/mL BSA, 2 mM MnCl2 and 50 uM DTT) and added to a 96 well plate (JAK3: final concentration of 4 ng per reaction/BTK: final concentration of 8 ng per reaction). […] After incubation (30° C.) for 1 hour, equivalent volume (25 uL per reaction) of ADP Glo was added and incubated (30° C.) for 40 minutes at room temperature. Then, a kinase detection reagent (50 uL per reaction) was added and incubated (30° C.) for 30 minutes at room temperature. The kinase activity was measured by chemiluminescence according to the instructions of ADP Glo kinase assay kit, and the inhibitory activity of the compounds according to the present invention was calculated.

[2] = target: Recombinant purified human BTK (Homo sapiens (Human), UniProt Q06187); experiment: BTK kinase inhibitory activity, ADP-Glo kinase assay kit (Promega V9071); format: biochemical; conditions: ATP 10 uM, 8 ng BTK per reaction, 1 hour at 30° C., chemiluminescence
Experimental: as §1, §2

Chain of Recombinant purified human JAK3 (P52333 whole entry): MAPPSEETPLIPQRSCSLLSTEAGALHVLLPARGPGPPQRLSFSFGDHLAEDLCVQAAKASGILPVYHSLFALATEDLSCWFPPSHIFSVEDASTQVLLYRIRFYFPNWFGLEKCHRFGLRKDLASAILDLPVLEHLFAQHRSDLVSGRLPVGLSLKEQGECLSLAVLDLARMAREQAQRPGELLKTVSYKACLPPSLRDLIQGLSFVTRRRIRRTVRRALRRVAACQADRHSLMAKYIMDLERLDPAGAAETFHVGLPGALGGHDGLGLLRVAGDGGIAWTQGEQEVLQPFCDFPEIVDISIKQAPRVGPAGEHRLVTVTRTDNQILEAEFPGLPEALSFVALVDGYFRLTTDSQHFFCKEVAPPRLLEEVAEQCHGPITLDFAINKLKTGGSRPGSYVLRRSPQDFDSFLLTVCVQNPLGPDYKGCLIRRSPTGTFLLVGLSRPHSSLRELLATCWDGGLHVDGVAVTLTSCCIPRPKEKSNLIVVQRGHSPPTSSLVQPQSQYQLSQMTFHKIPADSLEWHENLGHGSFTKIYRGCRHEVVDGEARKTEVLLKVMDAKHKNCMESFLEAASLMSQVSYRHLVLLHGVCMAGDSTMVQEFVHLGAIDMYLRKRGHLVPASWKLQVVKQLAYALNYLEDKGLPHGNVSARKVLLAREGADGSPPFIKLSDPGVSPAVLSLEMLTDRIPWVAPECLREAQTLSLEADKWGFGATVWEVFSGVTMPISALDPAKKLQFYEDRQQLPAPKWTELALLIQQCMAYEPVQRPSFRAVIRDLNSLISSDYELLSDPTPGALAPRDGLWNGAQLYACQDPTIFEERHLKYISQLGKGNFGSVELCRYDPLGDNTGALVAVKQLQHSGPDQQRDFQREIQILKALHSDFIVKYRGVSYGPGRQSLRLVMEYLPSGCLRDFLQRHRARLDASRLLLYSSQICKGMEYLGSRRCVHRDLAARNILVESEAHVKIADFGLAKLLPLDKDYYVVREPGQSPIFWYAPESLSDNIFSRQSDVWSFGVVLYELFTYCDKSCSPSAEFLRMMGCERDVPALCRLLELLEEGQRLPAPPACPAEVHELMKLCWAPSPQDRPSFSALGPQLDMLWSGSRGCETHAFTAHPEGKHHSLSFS
Chain of Recombinant purified human BTK (Q06187 whole entry): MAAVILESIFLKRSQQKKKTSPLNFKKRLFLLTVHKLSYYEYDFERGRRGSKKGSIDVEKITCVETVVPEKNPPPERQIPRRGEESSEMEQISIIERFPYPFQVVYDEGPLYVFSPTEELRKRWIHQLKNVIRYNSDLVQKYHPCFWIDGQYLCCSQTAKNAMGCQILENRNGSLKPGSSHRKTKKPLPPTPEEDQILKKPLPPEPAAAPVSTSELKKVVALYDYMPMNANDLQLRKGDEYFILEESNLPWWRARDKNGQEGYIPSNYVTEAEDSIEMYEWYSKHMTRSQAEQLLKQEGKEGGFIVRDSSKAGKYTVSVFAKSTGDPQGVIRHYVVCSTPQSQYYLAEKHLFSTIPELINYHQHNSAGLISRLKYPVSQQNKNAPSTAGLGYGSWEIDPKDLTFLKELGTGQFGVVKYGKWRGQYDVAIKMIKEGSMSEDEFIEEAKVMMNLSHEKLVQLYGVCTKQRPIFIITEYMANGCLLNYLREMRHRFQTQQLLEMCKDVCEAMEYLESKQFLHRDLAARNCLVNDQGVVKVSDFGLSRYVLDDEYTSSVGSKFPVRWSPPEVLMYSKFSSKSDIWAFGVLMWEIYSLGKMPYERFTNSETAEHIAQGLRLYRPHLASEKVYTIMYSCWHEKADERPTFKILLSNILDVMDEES

Row | Compound | IC50 [1] [nM] | IC50 [2] [nM]
1 | C=CC(=O)Nc1ccc(F)c(Oc2nc(Nc3ccc(N4CCOCC4)cc3)nn3cccc23)c1 [Example 31, N-(4-fluoro-3-((2-((4-morpholinophenyl)amino)pyrrolo[2,1-f][1,2,4]triazin-4-yl)oxy)phenyl)acrylamide] | 4.5 | 27.4
2 | C=CC(=O)Nc1ccc(F)c(Oc2nc(Nc3cnn(CCC)c3)nn3cccc23)c1 [Example 32, N-(4-fluoro-3-((2-((1-propyl-1H-pyrazol-4-yl)amino)pyrrolo[2,1-f][1,2,4]triazin-4-yl)oxy)phenyl)acrylamide] | 1.4 | 9.1
3 | C=CC(=O)Nc1ccc(F)c(Oc2nc(Nc3cnn(C(F)F)c3)nn3cccc23)c1 [Example 33, N-(3-((2-((1-(difluoromethyl)-1H-pyrazol-4-yl)amino)pyrrolo[2,1-f][1,2,4]triazin-4-yl)oxy)-4-fluorophenyl)acrylamide] | 2.8 | 15.3
4 | C=CC(=O)Nc1ccc(F)c(Oc2nc(Nc3cnn(C4CCOCC4)c3)nn3cccc23)c1 [Example 34, N-(4-fluoro-3-((2-((1-(tetrahydro-2H-pyran-4-yl)-1H-pyrazol-4-yl)amino)pyrrolo[2,1-f][1,2,4]triazin-4-yl)oxy)phenyl)acrylamide] | 0.5 | 2.4
5 | C=CC(=O)Nc1ccc(F)c(Oc2nc(Nc3cnn(CCN4CCOCC4)c3)nn3cccc23)c1 [Example 35, N-(4-fluoro-3-((2-((1-(2-morpholinoethyl)-1H-pyrazol-4-yl)amino)pyrrolo[2,1-f][1,2,4]triazin-4-yl)oxy)phenyl)acrylamide] | 0.7 | 3.5
6 | C=CC(=O)Nc1ccc(F)c(Oc2nc(Nc3cnn(C(C)C)c3)nn3cccc23)c1 [Example 36, N-(4-fluoro-3-((2-((1-isopropyl-1H-pyrazol-4-yl)amino)pyrrolo[2,1-f][1,2,4]triazin-4-yl)oxy)phenyl)acrylamide] | 1.1 | 4.4
7 | C=CC(=O)Nc1ccc(F)c(Oc2nc(Nc3cnn(C4CCNCC4)c3)nn3cccc23)c1 [Example 37, N-(4-fluoro-3-((2-((1-(piperidin-4-yl)-1H-pyrazol-4-yl)amino)pyrrolo[2,1-f][1,2,4]triazin-4-yl)oxy)phenyl)acrylamide] | 11.5 | 63.6
8 | C=CC(=O)Nc1ccc(F)c(Oc2nc(Nc3cnn(CC(F)(F)F)c3)nn3cccc23)c1 [Example 38, N-(4-fluoro-3-((2-((1-(2,2,2-trifluoroethyl)-1H-pyrazol-4-yl)amino)pyrrolo[2,1-f][1,2,4]triazin-4-yl)oxy)phenyl)acrylamide] | 1.8 | 16.5
9 | C=CC(=O)Nc1ccc(F)c(Oc2nc(Nc3ccc(-n4nc(C)cc4C)cc3)nn3cccc23)c1 [Example 39, N-(3-((2-((4-(3,5-dimethyl-1H-pyrazol-1-yl)phenyl)amino)pyrrolo[2,1-f][1,2,4]triazin-4-yl)oxy)-4-fluorophenyl)acrylamide] | 23.5 | 111
10 | C=CC(=O)Nc1ccc(F)c(Oc2nc(Nc3cnn(CCOC)c3)nn3cccc23)c1 [Example 40, N-(4-fluoro-3-((2-((1-(2-methoxyethyl)-1H-pyrazol-4-yl)amino)pyrrolo[2,1-f][1,2,4]triazin-4-yl)oxy)phenyl)acrylamide] | 2.8 | 23
11 | O=C(CCl)Nc1ccc(F)c(Oc2nc(Nc3cnn(CC(F)F)c3)nn3cccc23)c1 [Example 41, 2-chloro-N-(3-((2-((1-(2,2-difluoroethyl)-1H-pyrazol-4-yl)amino)pyrrolo[2,1-f][1,2,4]triazin-4-yl)oxy)-4-fluorophenyl)acetamide] | 0.7 | 1.2
12 | O=C(CCl)Nc1ccc(F)c(Oc2nc(Nc3cnn(C4CCOCC4)c3)nn3cccc23)c1 [Example 42, 2-chloro-N-(4-fluoro-3-((2-((1-(tetrahydro-2H-pyran-4-yl)-1H-pyrazol-4-yl)amino)pyrrolo[2,1-f][1,2,4]triazin-4-yl)oxy)phenyl)acetamide] | 0.5 | 1.3
13 | CCn1cc(Nc2nc(Oc3cc(NC(=O)CCl)ccc3F)c3cccn3n2)cn1 [Example 43, 2-chloro-N-(3-((2-((1-ethyl-1H-pyrazol-4-yl)amino)pyrrolo[2,1-f][1,2,4]triazin-4-yl)oxy)-4-fluorophenyl)acetamide] | 0.7 | 1.2
14 | CCn1cc(Nc2nc(Oc3cc(NC(=O)/C=C/CCl)ccc3F)c3cccn3n2)cn1 [Example 44, (E)-4-chloro-N-(3-((2-((1-ethyl-1H-pyrazol-4-yl)amino)pyrrolo[2,1-f][1,2,4]triazin-4-yl)oxy)-4-fluorophenyl)but-2-enamide] | 99.5 | 114
15 | C=CC(=O)Nc1ccc(F)c(Oc2nc(Nc3cnoc3)nn3cccc23)c1 [Example 45, N-(4-fluoro-3-(2-(isoxazol-4-ylamino)pyrrolo[2,1-f][1,2,4]triazin-4-yloxy)phenyl)acrylamide] | 32 | 206
16 | C=CC(=O)Nc1ccc(Cl)c(Oc2nc(Nc3cnn(CC)c3)nn3cccc23)c1 [Example 46, N-(4-chloro-3-((2-((1-ethyl-1H-pyrazol-4-yl)amino)pyrrolo[2,1-f][1,2,4]triazin-4-yl)oxy)phenyl)acrylamide] | 56.8 | 269
17 | C=CC(=O)Nc1cc(Oc2nc(Nc3cnn(CC)c3)nn3cccc23)ccc1C [Example 47, N-(5-((2-((1-ethyl-1H-pyrazol-4-yl)amino)pyrrolo[2,1-f][1,2,4]triazin-4-yl)oxy)-2-methylphenyl)acrylamide] | 13 | 52.2
18 | C=CC(=O)Nc1cc(Oc2nc(Nc3cnn(CC(F)F)c3)nn3cccc23)ccc1C [Example 48, N-(5-((2-((1-(2,2-difluoroethyl)-1H-pyrazol-4-yl)amino)pyrrolo[2,1-f][1,2,4]triazin-4-yl)oxy)-2-methylphenyl)acrylamide] | 13.8 | 73.4
19 | CCC#CC(=O)Nc1ccc(F)c(Oc2nc(Nc3cnn(CC(F)F)c3)nn3cccc23)c1 [Example 49, N-(3-((2-((1-(2,2-difluoroethyl)-1H-pyrazol-4-yl)amino)pyrrolo[2,1-f][1,2,4]triazin-4-yl)oxy)-4-fluorophenyl)pent-2-ynamide] | > 400 | 30
